In the supplement of paper PMC10307832:

What was measured:
Experiment in all cases: relative viability (nuclei count vs DMSO), 5 days (fraction); higher = more cells survive
[1] = test system: ABC-1
How it was run: (§1)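 Each reported value is a median over duplicate plates. It expresses relative viability: treated-well nuclei count divided by vehicle-well nuclei count. Lung cancer cell lines in 1536-well plates were dosed by pin tool a day after seeding, alone with one drug or with a fixed anchor-drug dose plus five library-drug doses (not always all listed) in √10 steps, and nuclei were counted after 5 days.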

[2] = test system: COR-L23
How it was run: as §1

[3] = test system: H3255
How it was run: as §1

[4] = test system: HCC-15
How it was run: as §1

[5] = test system: HCC-366
How it was run: as §1

[6] = test system: HCC-827
How it was run: as §1

[7] = test system: LC-2-ad
How it was run: as §1

[8] = test system: LCLC-103H
How it was run: as §1

[9] = test system: LXF-289
How it was run: as §1

[10] = test system: NCI-H1437
How it was run: as §1

[11] = test system: NCI-H1666
How it was run: as §1

[12] = test system: NCI-H1975
How it was run: as §1

[13] = test system: NCI-H2009
How it was run: as §1

[14] = test system: NCI-H2085
How it was run: as §1

[15] = test system: NCI-H2087
How it was run: as §1

[16] = test system: NCI-H2228
How it was run: as §1

[17] = test system: NCI-H2342
How it was run: as §1

[18] = test system: NCI-H23
How it was run: as §1

[19] = test system: NCI-H661
How it was run: as §1

[20] = test system: PC-14
How it was run: as §1

[21] = test system: PC-3 [JPC-3]
How it was run: as §1

[22] = test system: SK-MES-1
How it was run: as §1

[23] = test system: UMC-11
How it was run: as §1

Q: CN1CCN(CCOc2cc(OC3CCOCC3)c3c(Nc4c(Cl)ccc5c4OCO5)ncnc3c2)CC1 [Saracatinib] + COc1cc2c(Oc3ccc(NC(=O)C4(C(=O)Nc5ccc(F)cc5)CC4)cc3F)ccnc2cc1OCCCN1CCOCC1 [Foretinib] (partner 0.25 µM) was tested. Which relative viability ([1]; first compound 0.02 µM) did it give?
A: The relative viability was 1.08.

Q: And the relative viability ([1]; first compound 0.2 µM)?
A: Its relative viability is 0.975.

Q: And the relative viability ([1]; first compound 0.6325 µM)?
A: The relative viability was 0.998.

Q: And the relative viability ([1]; first compound 2 µM)?
A: The relative viability was 1.01.

Q: What about the relative viability ([2]; first compound 0.02 µM) of the same compound?
A: The relative viability was 0.905.

Q: And the relative viability ([2]; first compound 0.2 µM)?
A: Its relative viability is 0.917.

Q: And the relative viability ([2]; first compound 0.6325 µM)?
A: Its relative viability is 0.87.

Q: What about the relative viability ([2]; first compound 2 µM) of the same compound?
A: Its relative viability is 0.886.

Q: And the relative viability ([3]; first compound 0.02 µM)?
A: The relative viability was 0.97.

Q: And the relative viability ([3]; first compound 0.2 µM)?
A: Its relative viability is 0.749.

Q: And the relative viability ([3]; first compound 0.6325 µM)?
A: The relative viability was 0.987.

Q: And the relative viability ([3]; first compound 2 µM)?
A: The relative viability was 0.3.

Q: What about the relative viability ([4]; first compound 0.02 µM) of the same compound?
A: Its relative viability is 1.14.

Q: What about the relative viability ([4]; first compound 0.2 µM) of the same compound?
A: Its relative viability is 0.975.

Q: And the relative viability ([4]; first compound 0.6325 µM)?
A: The relative viability was 1.12.

Q: And the relative viability ([4]; first compound 2 µM)?
A: The relative viability was 1.05.

Q: And the relative viability ([5]; first compound 0.02 µM)?
A: The relative viability was 0.896.

Q: What about the relative viability ([5]; first compound 0.6325 µM) of the same compound?
A: Its relative viability is 0.844.

Q: And the relative viability ([5]; first compound 2 µM)?
A: Its relative viability is 0.531.

Q: What about the relative viability ([6]; first compound 0.02 µM) of the same compound?
A: Its relative viability is 1.08.

Q: What about the relative viability ([6]; first compound 0.2 µM) of the same compound?
A: Its relative viability is 0.452.

Q: What about the relative viability ([6]; first compound 0.6325 µM) of the same compound?
A: The relative viability was 0.193.

Q: What about the relative viability ([6]; first compound 2 µM) of the same compound?
A: The relative viability was 0.17.

Q: What about the relative viability ([7]; first compound 0.02 µM) of the same compound?
A: Its relative viability is 0.85.

Q: And the relative viability ([7]; first compound 0.2 µM)?
A: The relative viability was 0.812.

Q: What about the relative viability ([7]; first compound 0.6325 µM) of the same compound?
A: Its relative viability is 0.934.

Q: And the relative viability ([7]; first compound 2 µM)?
A: The relative viability was 0.658.

Q: And the relative viability ([8]; first compound 0.02 µM)?
A: The relative viability was 0.698.

Q: And the relative viability ([8]; first compound 0.2 µM)?
A: Its relative viability is 0.669.

Q: What about the relative viability ([8]; first compound 0.6325 µM) of the same compound?
A: Its relative viability is 0.742.

Q: And the relative viability ([8]; first compound 2 µM)?
A: Its relative viability is 0.572.

Q: What about the relative viability ([9]; first compound 0.02 µM) of the same compound?
A: Its relative viability is 0.922.

Q: What about the relative viability ([9]; first compound 0.2 µM) of the same compound?
A: The relative viability was 0.748.

Q: And the relative viability ([9]; first compound 0.6325 µM)?
A: The relative viability was 1.04.

Q: And the relative viability ([9]; first compound 2 µM)?
A: Its relative viability is 0.891.

Q: What about the relative viability ([10]; first compound 0.02 µM) of the same compound?
A: Its relative viability is 1.27.

Q: What about the relative viability ([10]; first compound 0.2 µM) of the same compound?
A: Its relative viability is 1.22.

Q: What about the relative viability ([10]; first compound 0.6325 µM) of the same compound?
A: Its relative viability is 1.3.

Q: What about the relative viability ([10]; first compound 2 µM) of the same compound?
A: The relative viability was 1.3.

Q: What about the relative viability ([11]; first compound 0.02 µM) of the same compound?
A: Its relative viability is 1.04.

Q: And the relative viability ([11]; first compound 0.2 µM)?
A: The relative viability was 0.836.

Q: And the relative viability ([11]; first compound 0.6325 µM)?
A: The relative viability was 1.27.

Q: And the relative viability ([11]; first compound 2 µM)?
A: The relative viability was 1.14.

Q: And the relative viability ([12]; first compound 0.02 µM)?
A: Its relative viability is 0.956.

Q: What about the relative viability ([12]; first compound 0.2 µM) of the same compound?
A: The relative viability was 0.85.

Q: And the relative viability ([12]; first compound 0.6325 µM)?
A: The relative viability was 0.96.

Q: What about the relative viability ([12]; first compound 2 µM) of the same compound?
A: Its relative viability is 0.631.

Q: And the relative viability ([13]; first compound 0.02 µM)?
A: The relative viability was 1.22.

Q: What about the relative viability ([13]; first compound 0.2 µM) of the same compound?
A: The relative viability was 1.14.

Q: And the relative viability ([13]; first compound 0.6325 µM)?
A: Its relative viability is 0.951.

Q: And the relative viability ([13]; first compound 2 µM)?
A: Its relative viability is 1.03.

Q: What about the relative viability ([14]; first compound 0.02 µM) of the same compound?
A: Its relative viability is 0.986.

Q: And the relative viability ([14]; first compound 0.2 µM)?
A: Its relative viability is 0.839.

Q: What about the relative viability ([14]; first compound 0.6325 µM) of the same compound?
A: The relative viability was 0.751.

Q: What about the relative viability ([14]; first compound 2 µM) of the same compound?
A: The relative viability was 0.668.

Q: And the relative viability ([15]; first compound 0.02 µM)?
A: The relative viability was 1.07.

Q: And the relative viability ([15]; first compound 0.2 µM)?
A: The relative viability was 0.874.

Q: And the relative viability ([15]; first compound 0.6325 µM)?
A: The relative viability was 1.1.

Q: What about the relative viability ([15]; first compound 2 µM) of the same compound?
A: Its relative viability is 1.07.

Q: And the relative viability ([16]; first compound 0.02 µM)?
A: The relative viability was 0.765.

Q: What about the relative viability ([16]; first compound 0.2 µM) of the same compound?
A: The relative viability was 0.733.

Q: And the relative viability ([16]; first compound 0.6325 µM)?
A: The relative viability was 0.873.

Q: What about the relative viability ([16]; first compound 2 µM) of the same compound?
A: Its relative viability is 0.591.

Q: And the relative viability ([17]; first compound 0.02 µM)?
A: Its relative viability is 0.84.

Q: And the relative viability ([17]; first compound 0.2 µM)?
A: Its relative viability is 0.856.

Q: And the relative viability ([17]; first compound 0.6325 µM)?
A: The relative viability was 1.11.

Q: What about the relative viability ([17]; first compound 2 µM) of the same compound?
A: Its relative viability is 0.925.

Q: What about the relative viability ([18]; first compound 0.02 µM) of the same compound?
A: The relative viability was 0.825.

Q: And the relative viability ([18]; first compound 0.2 µM)?
A: The relative viability was 0.815.

Q: What about the relative viability ([18]; first compound 0.6325 µM) of the same compound?
A: The relative viability was 1.

Q: What about the relative viability ([18]; first compound 2 µM) of the same compound?
A: The relative viability was 0.545.

Q: And the relative viability ([19]; first compound 0.02 µM)?
A: The relative viability was 1.02.

Q: What about the relative viability ([19]; first compound 0.2 µM) of the same compound?
A: The relative viability was 0.948.

Q: And the relative viability ([19]; first compound 0.6325 µM)?
A: The relative viability was 0.993.

Q: And the relative viability ([19]; first compound 2 µM)?
A: Its relative viability is 0.45.

Q: What about the relative viability ([20]; first compound 0.02 µM) of the same compound?
A: Its relative viability is 0.986.

Q: And the relative viability ([20]; first compound 0.2 µM)?
A: The relative viability was 0.721.

Q: What about the relative viability ([20]; first compound 0.6325 µM) of the same compound?
A: Its relative viability is 0.612.

Q: And the relative viability ([20]; first compound 2 µM)?
A: Its relative viability is 0.209.

Q: And the relative viability ([21]; first compound 0.02 µM)?
A: The relative viability was 1.04.

Q: What about the relative viability ([21]; first compound 0.2 µM) of the same compound?
A: Its relative viability is 0.889.

Q: What about the relative viability ([21]; first compound 0.6325 µM) of the same compound?
A: Its relative viability is 0.693.

Q: What about the relative viability ([21]; first compound 2 µM) of the same compound?
A: Its relative viability is 0.396.

Q: What about the relative viability ([22]; first compound 0.02 µM) of the same compound?
A: The relative viability was 0.94.

Q: What about the relative viability ([22]; first compound 0.2 µM) of the same compound?
A: Its relative viability is 0.772.

Q: What about the relative viability ([22]; first compound 0.6325 µM) of the same compound?
A: Its relative viability is 0.798.

Q: And the relative viability ([22]; first compound 2 µM)?
A: Its relative viability is 0.533.

Q: What about the relative viability ([23]; first compound 0.02 µM) of the same compound?
A: The relative viability was 0.977.

Q: What about the relative viability ([23]; first compound 0.6325 µM) of the same compound?
A: The relative viability was 0.982.

Q: What about the relative viability ([23]; first compound 2 µM) of the same compound?
A: The relative viability was 0.734.
